Consider eight compounds from paper PMC4900588, “Amphipathic β^2,2-Amino Acid Derivatives Suppress Infectivity and Disrupt the Intracellular Replication Cycle of Chlamydia pneumoniae” (PLoS ONE, 2016).

The subject of one data set is C. pneumoniae EBs. Nature of the data set: Elementary body infectivity assay. The data set is classed as cell-based. To be noted: Chlamydia pneumoniae; EBs treated with 5 μM for 1 h before inoculation of HL cells; read-out: inhibition of EB infectivity. Here is the method:
C. pneumoniae EBs were suspended into the HL cell growth medium supplemented with cycloheximide at 400 000 inclusion forming units (IFU)/ml and exposed to 5 μM of the derivatives A1—A6 for 1 h at 4°C. Immediately afterwards, aliquots of the EBs suspensions were used to infect HL cell monolayers as described above (MOI 0.2), resulting in typically 40–60 inclusions per eye field in nontreated control infections.

The next data set relates to HL cells. Nature of the data set: Resazurin cell viability assay. The class given is cell-based, human. To be noted: 5 μM, 72 h. The procedure:
(§1) HL cells were seeded into 96-well plates at density […] and incubated overnight before starting the exposure. The β^2,2-amino acid derivatives were added at concentrations of 5 μM either in the presence or absence of 1 μg/ml cycloheximide in a final volume of 200 μl and the plates were incubated for 72 h. The resazurin assay was performed as described in Karlsson et al..
Background: Resazurin is reduced to fluorescent resorufin, in cell work by metabolically active cells.

In data set [1] the test system is C. pneumoniae. The data set is described as follows: Delayed administration assay. The class given is cell-based, Chlamydia pneumoniae. The following applies: for reduction in inclusion vacuole counts: 3 μM, added at 6 hpi or later; for inhibition at 3 µM: Chlamydia pneumoniae, added at 2 hpi, read-out: inhibition of inclusion vacuole counts. The procedure:
(§2) For all experiments applying immunofluorescence, HL cells were seeded in 24-well plates with coverslips at density of 4 x 10^5 cells/well and incubated overnight before infection. The cells were inoculated with C. pneumoniae at multiplicity of infection (MOI) 0.2 in the cell growth media supplemented with 1 μg/ml cycloheximide to enhance chlamydial growth. The inoculated cultures were centrifuged at 550 g at 4°C for 1 h and incubated at 37°C for 1 h. Inocula were removed, fresh medium was added into wells and the plates were incubated for 70 h. Afterwards the cultures were fixed with methanol and the coverslips were stained with Pathfinder Chlamydia cell culture confirmation system (Bio-Rad) based on a genus-specific anti-LPS antibody to visualize the host cells and chlamydial inclusions. Detailed protocols for the infection and staining can be found in [29]. Unless otherwise stated in the text, the derivatives were added into the culture medium at 2 hours post infection (hpi), i.e., at the time when inocula were removed. […] DMSO concentration was adjusted to 0.1% in all experiments.
HL cells were infected as described above and treated with derivatives at concentrations of 3 μM in order to cause inhibition of infection above 50%. The treatment of the infected cells was delayed by 4, 10 and 22 h and inclusions counts were subsequently performed as described above.

The test system of data set [2] is C. pneumoniae. The data set is described as follows: Infectious progeny assay. The following applies: for inclusion vacuole counts in the second passage of infection vs untreated control: 5 μM; for suppression of infectious progeny production: administered at 6 hpi or later (data not shown). The data set is classed as cell-based, Chlamydia pneumoniae. Here is the method:
To measure the effects of the β^2,2-amino acid derivatives on production of new infectious progeny by C. pneumoniae, HL cells were infected with C. pneumoniae as described above in the presence of the derivatives (at a concentration of 5 μM). At 72 hpi, medium was removed from the wells and 200 μl fresh medium was added. The cells were scraped off and then further lysed by vortexing with glass beads, and the lysates were used to infect fresh HL cell monolayers. Inclusion counts in the second passage of infection were determined with immunofluorescent staining as described above, and control wells fixed and stained after the first infectious cycle were used as internal controls.

In the next data set the test system is C. pneumoniae strain K7. The data set is described as follows: C. pneumoniae inclusion count inhibition in infected HL cells (immunofluorescence). The class given is cell-based, Chlamydia pneumoniae. The following applies: for inhibition at 5 µM / reduction in inclusion counts / inhibition against C. pneumoniae: added at 2 hpi, 72 h, 5 μM; for inhibition at 5 µM / IC50 / reduction in inclusion counts / inhibition against C. pneumoniae: strain K7, HL cells; for inhibition at 5 µM: read-out: reduction in inclusion counts / inhibition against C. pneumoniae; for IC50: read-out: IC50 (inclusion counts, dose-response); for concentration that inhibits infectivity and interferes with inclusions: human epithelial HL cells. Here is the method: Human epithelial HL cells were grown in a RPMI1640 medium supplemented with 7.5% fetal bovine serum (FBS), 2 mM L-glutamine and 20 μg/ml gentamicin sulfate. A clinical C. pneumoniae isolate Kajaani 7 (K7), originally isolated from a young person suffering from pneumonia was obtained from Professor Pekka Saikku (Department of Medicinal Microbiology, Institute of Diagnostics, University of Oulu, Finland) and a cardiovascular C. pneumoniae isolate CV-6 was obtained from Professor Matthias Maass (Paracelsus Medical University, Salzburg, Austria). The reference strains CWL-029 (VR-1310) and AR-39 (ATCC 53592) were obtained from American Type Culture Collection (ATCC). All strains were propagated in HL cells as previously described. The K7 strain was used in all studies whereas CV-6 and the ATCC reference strains were used to confirm our initial compound screening data.
as §2
All experiments were carried out as four replicates in minimum and the inclusion counts were determined as mean ± SEM of 4 eye fields per coverslip. For statistical analysis GraphPad Prism software v. 5.0 and Student’s t-test (p < 0.05) were applied.

Data set [3] has as its system C. pneumoniae inclusions in HL cells. The data set is classed as cell-based, Chlamydia pneumoniae. To be noted: 2.5 μM added at 2 hpi. Here is the method: HL cells were seeded in 6-well plates at 2 x 10^6 cells per well and cultured overnight. The cell monolayers were infected with C. pneumoniae (MOI 1) and treated with 2.5 μM of derivative A2 by adding it to the culture medium at 2 hpi based on findings in the dose-response assay. Untreated and uninfected HL control cells were incubated concurrently. The cells were pre-fixed at 24, 48 and 72 hpi with Karnovsky's fixative at 4°C, overnight. The samples were further processed for TEM as described in [30].

A short description of data set [4]: Resazurin cell viability assay. The class given is cell-based, human. The following applies: human, HL cells. Here is the method: as §1

Structures are written as SMILES. Where “and” joins values, the source holds several entries; their conditions need not be identical. Equal entries are not always repeated. Where two headings read alike, the source gives them in different places.

Take `NCCNC(=O)C(CN)(Cc1ccc(C(F)(F)F)cc1)Cc1ccc(C(F)(F)F)cc1` [A1]: the inhibition at 5 µM in the data set on C. pneumoniae EBs is not above 50%. Besides, the “effect on host HL cell viability (in words)” value (from here on “effect”) in the data set with HL cells is “no substantial effect on host HL cell viability”. Also, in the data set on C. pneumoniae [1], the “reduction in inclusion vacuole counts” value is 10–20% and the inhibition at 3 µM is approximately 70%. Moreover, in the data set with C. pneumoniae [2], the “inclusion vacuole counts in the second passage of infection vs untreated control” value is recorded as “significantly lower” and the “suppression of infectious progeny production” value was “neither A1 nor A2 suppressed C. pneumoniae infectious progeny production”. Moreover, in the data set with C. pneumoniae strain K7 (Chlamydia pneumoniae), the inhibition at 5 µM is 95.6%; the concentration for half-maximal inhibition (IC50) (in general, the midpoint of a concentration-inhibition curve) was 2 µM and 1.4 µg/mL. For the same compound, the “concentration that inhibits infectivity and interferes with inclusions” value in the data set on C. pneumoniae strain K7 is reported as “below 5 μM”.

On to `NCCNC(=O)C(CN)(Cc1ccc2ccccc2c1)Cc1ccc2ccccc2c1` [A2], for which the values for the inhibition at 5 µM in the data set with C. pneumoniae EBs and with C. pneumoniae strain K7 (Chlamydia pneumoniae) were not above 50% and 100%, respectively. In addition, in the data set with HL cells, the “effect” value is “no substantial effect on host HL cell viability”. The “reduction in inclusion vacuole counts” value in the data set with C. pneumoniae [1] was 20–30%. For the same compound, the inhibition at 3 µM in the data set with C. pneumoniae [1] is approximately 80%. The “TEM finding in infected HL cells” value is “affected inclusion vacuoles were visible” in data set [3] (24 hpi); “smaller inclusions, which only contained fragments of RBs and EBs” in data set [3] (48 hpi); “no RBs or EBs were present” in data set [3] (72 hpi). The “inclusion vacuole counts in the second passage of infection vs untreated control” value with C. pneumoniae [2] is on record as “significantly lower”. Further, the “suppression of infectious progeny production” value in the data set with C. pneumoniae [2] is recorded as “neither A1 nor A2 suppressed C. pneumoniae infectious progeny production”. Further, the half-maximal inhibitory concentration (IC50) in the data set on C. pneumoniae strain K7 (Chlamydia pneumoniae) was 2 µM and 1.3 µg/mL. In addition, in the data set on C. pneumoniae strain K7, the “concentration that inhibits infectivity and interferes with inclusions” value is reported as “below 5 μM”.

Turning to `CC(C)(C)c1ccc(CC(CN)(Cc2ccc(C(C)(C)C)cc2)C(=O)NCCN)cc1` [A3], in the data set on C. pneumoniae EBs, the inhibition at 5 µM worked out at 77%. The viability (in general, a read-out of living cells in per cent, often relative to untreated cells) at 72 h, 5 µM in data set [4] came to 30.6%. Besides, the “reduction in inclusion counts / inhibition against C. pneumoniae” value in the data set with C. pneumoniae strain K7 is “full inhibition”.

For `CN(C)CCOC(=O)C(CN)(Cc1ccc(C(F)(F)F)cc1)Cc1ccc(C(F)(F)F)cc1` [A4], the values for the inhibition at 5 µM in the data set with C. pneumoniae EBs and in the data set with C. pneumoniae strain K7 (Chlamydia pneumoniae) were 20% and 23.2%, respectively. Besides, in the data set on HL cells, the “effect” value is “no cytotoxic effects”.

Regarding `CN(C)CCOC(=O)C(CN)(Cc1ccc2ccccc2c1)Cc1ccc2ccccc2c1` [A5], the results for the inhibition at 5 µM in the data set with C. pneumoniae EBs and in the data set on C. pneumoniae strain K7 (Chlamydia pneumoniae) were 66% and 89.8%, respectively. Besides, the “reduction of HL cell viability” value in the data set on HL cells was determined as 35.6%.

`CN(C)CCOC(=O)C(CN)(Cc1ccc(C(C)(C)C)cc1)Cc1ccc(C(C)(C)C)cc1` [A6]: the inhibition at 5 µM with C. pneumoniae EBs was found to be 90%. In data set [4], this compound displayed a viability at 72 h, 5 µM of 18.4%. Also, the “reduction in inclusion counts / inhibition against C. pneumoniae” value in the data set on C. pneumoniae strain K7 was “full inhibition”.

As for `CO[C@H]1/C=C/O[C@@]2(C)Oc3c(C)c(O)c4c(O)c(c(/C=N/N5CCN(C)CC5)c(O)c4c3C2=O)NC(=O)/C(C)=C\C=C\[C@H](C)[C@H](O)[C@@H](C)[C@@H](O)[C@@H](C)[C@H](OC(C)=O)[C@@H]1C` [Rifampicin, reference compound], in the data set on C. pneumoniae strain K7 (Chlamydia pneumoniae, K7, positive control, 12 nM, read-out: inhibition in C. pneumoniae inclusion counts), the inhibition at 0.012 µM lay within 95 to 98%.

As for `CC[C@H]1OC(=O)[C@H](C)[C@@H](O[C@H]2C[C@@](C)(OC)[C@@H](O)[C@H](C)O2)[C@H](C)[C@@H](O[C@@H]2O[C@H](C)C[C@H](N(C)C)[C@H]2O)[C@](C)(O)C[C@@H](C)CN(C)[C@H](C)[C@@H](O)[C@]1(C)O` [azithromycin, reference compound], the inhibition at 0.02 µM in the data set with C. pneumoniae strain K7 (Chlamydia pneumoniae, K7, positive control, 20 nM, read-out: inhibition in C. pneumoniae inclusion counts) is 95 to 98%.
